{"source": "paper PMC10117287", "about": "(RSC Advances, 2023)", "target": "α-glucosidase (Saccharomyces cerevisiae, UniProt P53341)", "sequence (P53341 whole entry)": "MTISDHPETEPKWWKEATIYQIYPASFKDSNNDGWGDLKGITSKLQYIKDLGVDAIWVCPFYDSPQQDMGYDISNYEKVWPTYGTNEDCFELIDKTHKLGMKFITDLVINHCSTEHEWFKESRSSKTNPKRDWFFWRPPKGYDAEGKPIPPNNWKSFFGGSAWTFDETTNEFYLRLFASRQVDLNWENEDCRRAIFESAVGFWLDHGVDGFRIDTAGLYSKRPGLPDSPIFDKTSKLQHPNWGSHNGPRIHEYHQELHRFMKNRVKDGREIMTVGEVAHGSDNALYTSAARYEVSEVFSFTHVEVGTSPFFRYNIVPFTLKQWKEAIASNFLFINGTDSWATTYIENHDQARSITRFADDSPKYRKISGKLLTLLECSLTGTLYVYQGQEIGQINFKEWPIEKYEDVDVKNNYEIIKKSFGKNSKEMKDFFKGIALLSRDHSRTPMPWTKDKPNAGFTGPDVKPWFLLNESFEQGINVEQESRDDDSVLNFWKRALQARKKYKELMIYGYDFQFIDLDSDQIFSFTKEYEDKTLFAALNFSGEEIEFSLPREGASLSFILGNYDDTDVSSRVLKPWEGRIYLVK", "assay": "α-glucosidase inhibitory activity", "assay_type": "biochemical"}
{"compound": "COc1cc(-c2nc(-c3ccccc3)c(-c3ccccc3)n2-c2ccc(O)cc2)ccc1O", "note": "[IMI-13]", "values": [{"measurement": "inhibition at 10 µM", "setting": "pH 7, read-out: Inhibition (I%) 10 (μM)", "result": "> 100", "unit": "%"}, {"measurement": "inhibition at 20 µM", "setting": "pH 7, read-out: Inhibition (I%) 20 (μM)", "result": "99.28 ± 0.51", "unit": "%"}, {"measurement": "inhibition at 30 µM", "setting": "pH 7, read-out: Inhibition (I%) 30 (μM)", "result": "95.2 ± 1", "unit": "%"}, {"measurement": "inhibition at 40 µM", "setting": "pH 7, read-out: Inhibition (I%) 40 (μM)", "result": "81.9 ± 1.3", "unit": "%"}, {"measurement": "inhibition at 50 µM", "setting": "pH 7, read-out: Inhibition (I%) 50 (μM)", "result": "26 ± 1.2", "unit": "%"}]}
